Results published in patent US10947222B2, “Indole derivatives useful as inhibitors of diacylglyceride O-acyltransferase 2” (Merck Sharp & Dohme Corp., priority 2016, dated 2021).

Target: human DGAT2 (hDGAT2) (Homo sapiens (Human), UniProt Q96PD7)
Test: DGAT2 enzymatic activity assay (triolein formation, LC/MS/MS)
Format: biochemical
Settings: Sf-9 membrane prep expressing hDGAT2; 25 μM diolein, 10 μM oleoyl-CoA; triolein by LC/MS/MS
In short: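 Membranes from Sf-9 cells infected with untagged baculovirus hDGAT2 were incubated at rt in 100 mM Tris.Cl pH 7.0, 20 mM MgCl2, 5% ethanol with 25 μM diolein and 10 μM oleoyl-CoA (10 ng/μL membrane). Triolein was quantified by LC/MS/MS against internal standard; IC50 by 4-parameter sigmoidal fit.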

Sequence of human DGAT2 (hDGAT2) (Q96PD7 whole entry): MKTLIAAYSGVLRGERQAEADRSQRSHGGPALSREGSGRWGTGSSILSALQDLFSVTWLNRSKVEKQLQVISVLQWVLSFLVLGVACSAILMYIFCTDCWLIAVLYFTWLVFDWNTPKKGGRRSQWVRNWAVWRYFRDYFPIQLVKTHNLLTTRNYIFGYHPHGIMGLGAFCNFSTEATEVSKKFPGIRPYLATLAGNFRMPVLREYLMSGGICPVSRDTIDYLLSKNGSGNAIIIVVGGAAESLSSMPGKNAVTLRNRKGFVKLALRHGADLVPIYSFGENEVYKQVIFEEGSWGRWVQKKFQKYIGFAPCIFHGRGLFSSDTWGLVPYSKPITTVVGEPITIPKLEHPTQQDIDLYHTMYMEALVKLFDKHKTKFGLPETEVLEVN

| Structure (SMILES) | IC50 [µM] |
| --- | --- |
| CC(C)(CN1CCOCC1)NC(=O)c1ccc2c(-c3ccccc3Cl)cn(-c3ccc(F)cc3)c2c1 [Example 4, 3-(2-chlorophenyl)-1-(4-fluorophenyl)-N-(2-methyl-1-morpholinopropan-2-yl)-1H-indole-6-carboxamide] | 0.629 |
| C[C@H](NC(=O)c1ccc2c(-c3ccccc3Cl)cn(-c3ccc(F)cc3)c2c1)c1ccc(C(F)(F)F)nc1 [Example 6, (S)-3-(2-chlorophenyl)-1-(4-fluorophenyl)-N-(1-(6-(trifluoromethyl)pyridin-3-yl)ethyl)-1H-indole-6-carboxamide] | 0.476 |
| C[C@@H](NC(=O)c1ccc2c(-c3ccccc3Cl)cn(-c3ccc(F)cc3)c2c1)c1ccc(C(F)(F)F)nc1 [Example 7, (R)-3-(2-chlorophenyl)-1-(4-fluorophenyl)-N-(1-(6-(trifluoromethyl)pyridin-3-yl)ethyl)-1H-indole-6-carboxamide] | 0.671 |

Molecules with a lower IC50, results first:

| IC50 [µM] | Structure (SMILES) |
| --- | --- |
| 0.028 | CC1(NC(=O)c2ccc3c(-c4ccccc4Cl)cn(-c4ncc(F)cn4)c3c2)CCS(=O)(=O)C1 (single isomer, unassigned; enantiomer b) [Example 15-B, 3-(2-chlorophenyl)-1-(5-fluoropyrimidin-2-yl)-N-(3-methyl-1,1-dioxidotetrahydrothiophen-3-yl)-1H-indole-6-carboxamide (enantiomer B, slow)] |
| 0.00091 | CC1(NC(=O)c2ccc3c(-c4cccc(OC(F)F)c4)cn(-c4ncc(F)cn4)c3c2)CCS(=O)(=O)C1 (single isomer, unassigned; enantiomer b) [Example 18-B, 3-(3-(difluoromethoxy)phenyl)-1-(5-fluoropyrimidin-2-yl)-N-(3-methyl-1,1-dioxidotetrahydrothiophen-3-yl)-1H-indole-6-carboxamide (enantiomer B)] |
| 0.19 | O=C(N[C@H](CO)c1ccc(C(F)(F)F)nc1)c1ccc2c(-c3ccccc3Cl)cn(-c3ccc(F)cc3)c2c1 [Example 5, (S)-3-(2-chlorophenyl)-1-(4-fluorophenyl)-N-(2-hydroxy-1-(6-(trifluoromethyl)pyridin-3-yl)ethyl)-1H-indole-6-carboxamide] |
